# Measured values as given in PubChem BioAssay AID624167 (Sanford-Burnham Center for Chemical Genomics, 2012).
# pIC50: −log10 of the molar value. Active and inactive are the calls of the source.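 Rule for the calls: active = mean IC50 for reducing PEG3 promoter reporter signal at or below a set limit, with IC50 above the limit in both counter screens; inactive = the rest, including counter screen hits.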
# Legend:
# Test in all cases: Peg3 promoter luciferase inhibitors, potency, dose response, cell-based, HeLa, CREF/GAPDH counter-screen panel (AID 624167)
# PEG-3 [1] = target: PEG-3 (UniProt Q6IN02); settings: HeLa PEG-Prom luciferase reporter, overnight, CREF/GAPDH counter-screens, mean of runs
# PEG-3 [2] = settings: HeLa PEG-Prom luciferase reporter, overnight, CREF/GAPDH counter-screens
# Rat fibroblasts (CREF) = settings: CREF/GAPDH counter-screens
# [3] = run 1, dose range 1, individual replicate IC50 per panel
# [4] = run 2, dose range 1, individual replicate IC50 per panel
# PEG-3 (UniProt Q6IN02), sequence (Q6IN02 whole entry, looked up): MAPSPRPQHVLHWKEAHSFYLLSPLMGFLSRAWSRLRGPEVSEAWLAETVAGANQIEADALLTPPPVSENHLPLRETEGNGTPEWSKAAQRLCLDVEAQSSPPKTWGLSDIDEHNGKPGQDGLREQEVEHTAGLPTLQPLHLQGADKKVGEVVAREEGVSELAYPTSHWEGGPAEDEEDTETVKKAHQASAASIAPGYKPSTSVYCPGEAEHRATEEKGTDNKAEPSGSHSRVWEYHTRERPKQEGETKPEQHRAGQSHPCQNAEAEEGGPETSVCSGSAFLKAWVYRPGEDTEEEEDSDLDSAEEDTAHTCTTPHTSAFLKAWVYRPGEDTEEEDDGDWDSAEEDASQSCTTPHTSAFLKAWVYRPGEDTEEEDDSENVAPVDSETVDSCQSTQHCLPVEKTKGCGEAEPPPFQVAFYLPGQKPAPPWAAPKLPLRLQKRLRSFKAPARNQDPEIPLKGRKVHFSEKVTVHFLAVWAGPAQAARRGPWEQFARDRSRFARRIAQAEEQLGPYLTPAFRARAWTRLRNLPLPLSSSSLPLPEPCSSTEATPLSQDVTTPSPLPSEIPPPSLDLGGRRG
SMILES,pIC50 (PEG-3 [1]),pIC50 (PEG-3 [2]; [3]),pIC50 (PEG-3 [2]; [4]),pIC50 (Rat fibroblasts (CREF); mean of runs),pIC50 (Rat fibroblasts (CREF); [3]),pIC50 (Rat fibroblasts (CREF); [4]),IC50 (PEG-3 [1])
Cc1cc(NC(c2cccnc2)c2ccc3cccnc3c2O)no1 (stereo not drawn),5.21,5.14,5.30,5.24,5.25,5.24,
CCN(CCO)c1ccc(N=Nc2cc(C)[nH]n2)cc1,5.34,5.52,5.21,5.65,5.82,5.53,
Cc1csc(NC(=O)c2ccc(N3CCCC3=O)cc2)n1,5.23,5.27,5.19,5.35,5.54,5.21,
OCC1OC(n2ccc3c(NO)ncnc32)C(O)C1O (stereo not drawn),6.42,6.36,6.49,5.49,5.56,5.44,
Clc1cccc(-c2nc(-c3ccccn3)no2)c1,5.32,5.43,5.23,5.65,5.74,5.58,
COc1ccc(C(=O)O/N=C(\N)c2ccccn2)cc1,5.69,5.51,6.03,5.79,5.88,5.72,
O=C(Nc1ccccn1)c1cc2ccccc2o1,5.34,5.30,5.40,5.74,5.87,5.64,
O=[N+]([O-])c1ccc(-c2ccc(/C=N/Nc3nc(NCc4ccccc4)nc(N4CCOCC4)n3)o2)cc1,5.25,5.21,5.29,5.07,5.03,5.11,
CCCn1c(C)cc(C(=O)CN2C(=O)c3ccccc3S2(=O)=O)c1C,5.39,5.49,5.32,5.21,5.20,5.22,
Cc1cc(C)c2c(N)c(C(=O)Nc3ncc(C)s3)sc2n1,5.78,5.96,5.65,5.48,5.54,5.42,
CCOc1ccc(C(=O)O/N=C(\N)c2ccccn2)cc1,5.47,5.30,5.75,5.65,5.63,5.67,
O=C(O)c1cccc(COc2ccccc2Cl)c1,5.74,6.17,5.53,4.69,4.41,5.81,
C/C(=N\NC(=O)c1n[nH]c2c1CCC2)c1cccs1,5.76,5.93,5.63,5.60,5.60,5.60,
CCCSc1ccc2nc(-c3ccccc3)cn2c1,5.09,5.15,5.04,5.82,5.99,5.69,
COc1ccc(C(=O)Nc2nc3ccccc3s2)c(OC)c1,5.76,5.59,6.02,6.50,6.48,6.51,
Nc1ccc(-c2nc3ccc(C(=O)O)cc3s2)cc1,6.44,6.36,6.54,5.22,5.20,5.24,
O=C(/C=C/c1ccccc1)Nc1cccc(C(=O)O)c1,5.65,5.75,5.58,5.27,5.40,5.18,
C(=NN1CCCCCC1)c1ccc2ccccc2n1,,5.45,< 4.00,5.59,5.67,5.52,inactive
C(=Cc1cnc2ccccc2n1)c1ccc2c(c1)OCO2,5.83,5.77,5.90,5.95,5.99,5.92,
COC(CNC(=O)c1ccc2c3c(onc13)-c1ccccc1C2=O)OC,5.13,5.03,5.25,4.74,4.76,4.72,
COc1ccc(C(=O)NNC(=O)c2ccccn2)cc1,5.75,5.57,6.07,5.78,5.92,5.68,
COCCn1c(C)cc(C(=O)COC(=O)c2cccc(O)c2)c1C,4.97,4.79,5.26,6.21,6.33,6.12,
NC1=C(Br)C(=O)c2ncccc2C1=O,5.51,5.48,5.54,5.66,5.66,5.66,
COc1ccccc1CNCC(O)Cn1c2ccccc2c2ccccc21 (stereo not drawn),5.05,5.00,5.11,4.79,4.78,4.80,

SMILES,pIC50 (PEG-3 [1]),pIC50 (PEG-3 [2]; [3]),pIC50 (PEG-3 [2]; [4]),pIC50 (Rat fibroblasts (CREF); mean of runs),pIC50 (Rat fibroblasts (CREF); [3]),pIC50 (Rat fibroblasts (CREF); [4]),IC50 (PEG-3 [1])
OCCNc1c2ccccc2nc2ccccc12,5.05,4.99,5.11,6.11,< 4.10,6.11,
CC(C)CC(=NNC(=O)c1ccncc1)c1cc(Cl)ccc1O,5.47,5.47,5.46,4.99,5.09,4.91,
Cc1ccc(C(=O)Nc2cnc3ccccc3c2)cc1,6.30,6.38,6.24,5.41,5.45,5.37,
Cc1ccc(-n2[nH]c(=O)c(-c3ccccn3)c2C)cc1,5.52,5.58,5.47,4.95,5.14,4.82,
Oc1c(I)cc(Cl)c2cccnc12,4.80,5.10,4.63,4.75,4.80,4.70,
CCOc1ccc2c(ccc(/C=C/c3cc(C)c4cccnc4c3O)[n+]2C)c1,5.29,5.37,5.23,4.93,4.92,4.93,
O=c1c(Cl)c(N2CCCCC2)cnn1-c1nc2ccccc2[nH]1,5.49,5.52,5.46,6.15,6.09,6.21,
O=C(CCl)Nc1ccccc1Sc1ccc(Cl)cc1,5.00,4.88,5.15,5.09,5.09,5.09,
CCOc1ccc2nc(NC(=O)c3ccccn3)sc2c1,,5.36,< 4.00,5.46,5.55,5.38,inactive
C[C@@H]1C[C@@H]([C@H](O)CC2CC(=O)NC(=O)C2)C(=O)[C@@H](C)C1,6.00,5.78,6.43,5.09,5.73,4.84,
COc1cc(SC)ccc1C(=O)Nc1ncc(C)s1,5.41,5.52,5.32,5.71,5.80,5.64,
COc1ccc(/C=C/c2nc3ccccc3n2C)cc1,5.72,5.89,5.59,5.46,5.47,5.46,
COc1ccc(OCc2cccc(C(=O)O)c2)cc1,6.49,6.58,6.41,4.98,4.99,4.97,
COc1ccc(-c2cc3nc(C)n(N)c(=O)c3s2)cc1,6.33,6.18,6.54,5.96,5.99,5.94,
CCCCCN1C=CC(=C2C(=O)c3ccccc3C2=O)C=C1,5.91,5.96,5.85,6.14,6.43,5.96,
O=C(/C=C\Nc1ccc2c(c1)OCO2)c1ccccn1,5.82,5.94,5.73,5.96,5.98,5.94,
O=C(Nc1cc(S(=O)(=O)N2CCOCC2)ccc1Cl)c1cc([N+](=O)[O-])ccc1Cl,5.07,4.83,5.67,4.72,4.50,5.21,
COc1cccc(/C=N/NC(=O)c2ccc(-c3ccccc3)cc2)c1O,5.60,5.48,5.76,4.60,4.71,4.52,
Cc1cccc(C)c1NC(=O)c1nc(S(=O)(=O)Cc2ccccc2)ncc1Cl,5.06,5.00,5.14,4.84,4.89,4.79,
CCN(CCCl)c1cc(CN(C)C)cc(NC(=O)c2ccc(C(=O)Nc3cc(CN(C)C)cc(N(CC)CCCl)c3)cc2)c1,5.95,5.80,6.19,5.12,4.85,6.10,
COC1=CC(=O)c2c(ccc3ncnc(N)c23)C1=O,6.00,5.83,6.26,6.03,6.06,6.00,
O=c1cc(-c2ccc(O)cc2)oc2ccc3ccccc3c12,5.39,5.33,5.45,5.91,6.05,5.80,
Cc1ccc(C(=O)O/N=C(\N)c2ccccn2)cc1,5.18,4.99,5.53,5.80,5.79,5.82,
Cc1ccc(-c2cc3c(nn2)-c2ccccc2C3=O)cc1,5.56,5.59,5.53,6.47,6.57,6.39,
